{"source": "patent US8143403B2", "about": "(Bristol-Myers Squibb Company, priority 2008, dated 2012)", "key": {"[1]": {"target": "T1, Human CGRP Receptor (Homo sapiens, UniProt O60894+Q16602)", "T1 construct": "Crude membranes were prepared from SK-N-MC cells expressing CGRP receptors; endogenous in cells; host or cells: SK-N-MC cells (crude membranes)", "T1 sequence (Q16602 23-461)": "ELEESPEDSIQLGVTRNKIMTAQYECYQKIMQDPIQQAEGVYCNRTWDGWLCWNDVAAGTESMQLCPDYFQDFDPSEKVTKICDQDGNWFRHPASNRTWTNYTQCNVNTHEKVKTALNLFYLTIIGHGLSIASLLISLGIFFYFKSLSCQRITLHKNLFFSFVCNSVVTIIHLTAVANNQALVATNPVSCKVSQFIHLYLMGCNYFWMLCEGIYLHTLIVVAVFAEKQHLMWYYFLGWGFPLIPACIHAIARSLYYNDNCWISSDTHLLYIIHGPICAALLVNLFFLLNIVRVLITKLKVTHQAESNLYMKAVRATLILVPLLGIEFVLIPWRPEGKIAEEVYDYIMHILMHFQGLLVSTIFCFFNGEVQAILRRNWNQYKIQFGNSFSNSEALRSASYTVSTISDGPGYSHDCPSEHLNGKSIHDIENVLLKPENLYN", "T1 sequence (O60894 27-148)": "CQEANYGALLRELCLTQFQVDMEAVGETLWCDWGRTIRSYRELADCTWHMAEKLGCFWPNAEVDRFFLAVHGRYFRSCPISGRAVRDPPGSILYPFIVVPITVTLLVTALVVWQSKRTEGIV", "experiment": "Radioligand binding assay, [125I]-CGRP displacement on SK-N-MC membranes", "settings": "displacement of [125I]-CGRP (18 pM final), 2 h room temperature", "procedure": "Tissue Culture. SK-N-MC cells were grown at 37° C. in 5% CO2 as a monolayer in medium consisting of MEM with Earle's salts and L-glutamine (Invitrogen) supplemented with 10% fetal bovine serum (Invitrogen).\nMembrane Preparation. Crude membranes were prepared from SK-N-MC cells expressing CGRP receptors. The cells were rinsed twice with phosphate-buffered saline (155 mM NaCl, 3.3 mM Na2HPO4, 1.1 mM KH2PO4, pH 7.4), and incubated for 5-10 min. at 4° C. in hypotonic lysis buffer consisting of 10 mM Tris (pH 7.4) and 5 mM EDTA. The cells were transferred from plates to polypropylene tubes (16×100 mm) and homogenized using a polytron. Homogenates were centrifuged at 32,000×g for 30 min. The pellets were resuspended in cold hypotonic lysis buffer with 0.1% mammalian protease inhibitor cocktail (Sigma) and assayed for protein concentration. The SK-N-MC homogenate was aliquoted and stored at −80° C. Radioligand Binding Assay. The compounds of invention were solubilized and carried through serial dilutions using 100% DMSO. Aliquots from the compound serial dilutions were further diluted 25 fold into assay buffer (50 mM Tris-Cl pH 7.5, 5 mM MgCl2, 0.005% Triton X-100) and transferred (volume 50 μl) into 96 well assay plates. [^125I]-CGRP (GE Healthcare or Perkin-Elmer) was diluted to 72 pM in assay buffer and a volume of 50 μl was added to each well. SK-N-MC membranes were thawed, diluted in assay buffer with fresh 0.1% mammalian protease inhibitor cocktail (Sigma), and re-homogenized. SK-N-MC homogenate (7 μg/well) was added in a volume of 100 μl. The assay plates were then incubated at room temperature for 2 h. Assays were stopped by addition of excess cold wash buffer (50 mM Tris-Cl pH 7.5, 0.1% BSA) immediately followed by filtration over glass fiber filters (Whatman GF/B) previously soaked in 0.5% PEI. Non-specific binding was defined with 1 μM beta-CGRP (Bachem). Protein bound radioactivity was determined using a gamma or scintillation counter. The resulting data was analyzed using a four parameter competitive binding equation (XLfit v2.0) and the IC50 was defined as the concentration of a compound of invention required to displace 50% of radioligand binding. Final assay concentration of [^125I]-CGRP was 18 pM. […] All compounds of invention were evaluated in at least two separate experiments."}, "[2]": {"test_system": "CGRP-induced increase in laser Doppler facial blood flow", "experiment": "Inhibition of CGRP-induced increase in laser Doppler facial blood flow in non-human primate", "type": "in vivo, common marmoset (Callithrix jacchus)", "settings": "pretreat −30 min, hαCGRP 10 μg/kg i.v.", "procedure": "FIG. 4. […] Data are peak % change from baseline±sem, with each animal serving as its own control.\nSaturation/Scatchard Analysis. […] Saturation data were analyzed using a one site binding equation to estimate apparent equilibrium dissociation constant (Kd) and the maximum number of binding sites (Bmax) (Prizm v4.0, Graphpad). […] Functional Antagonism/Schild analysis. Agonist stimulation of CGRP receptor complex leads to cyclic AMP (adenosine 3′5′-cyclic monophosphate) production via Gs-dependent activation of an adenylate cyclase (Juaneda C et al., TiPS, 2000; 21:432-438). Consequently, CGRP receptor antagonists inhibit CGRP-induced cyclic AMP formation in SK-N-MC cells which natively express the CGRP receptor complex (Doods H et al., Br J Pharmacol, 2000; 129(3):420-423). […] A Schild analysis format was used, which allowed investigation of the mechanism of antagonism. […] Various concentrations of CGRP were added and the cells were allowed to incubate 30 min at room temperature. The cells were lysed with lysis reagent and cAMP concentrations were determined by HTRF according to the manufacturer's instructions. A standard curve using known quantities of cAMP was evaluated in parallel to allow conversion of HTRF ratio to nM cAMP. The resulting curves were then evaluated using a Gaddum/Schild equation individually and with global fitting (Prizm v4.0, Graphpad). […] To obtain a global fit the following parameters were shared (top, bottom, logEC50, Hill slope and pA2) and all curves were fit simultaneously. […] Non-Terminal Method for Assessing In Vivo Efficacy of Small Molecule CGRP-Receptor Antagonists in Mammals Overview. […] Non-human primates (e.g., marmosets) are the only animals known to have human-like CGRP receptor pharmacology conferred by the presence of the specific amino acid residue (Trp74) in their RAMP1 sequence which is responsible for the phenotype of the human receptor (Mallee et al. J Biol Chem 2002 277:14294). Since current migraine models primarily use rats (Escott et al. Brain Res 1995 669:93; Williamson et al. Cephalalgia 1997 17:525), or are invasive, terminal procedures in primates (Doods et al. Br J Pharmacol 2000 129:420), a novel non-invasive, survival model in non-human primates for in vivo efficacy assessment of CGRP-receptor antagonists was developed. […] Peptide and small-molecule CGRP-receptor antagonists were used to validate the non-human primate model. […] Animals. Adult male and female common marmosets (Callithrix jacchus) purchased from Harlan and weighing 350-550 g served as subjects. Anesthesia & Surgical Preparation. Animals are anesthetized by isoflurane inhalation in an induction chamber (4-5% rapid induction, maintained with 1-2.5%; Solomon et al., 1999)."}}, "note": "pIC50: −log10 of the molar value. Marks after values point to notes of the source that are not given here."}
{"compound": "O=C(O[C@@H]1CC[C@@H](c2cccc(F)c2F)Cc2cccnc21)N1CCC(n2c(=O)[nH]c3ncccc32)CC1", "note": "[Example 20]", "values": [{"measurement": "pIC50", "setting": "[1]", "result": 9.92}, {"measurement": "% Inhibition", "setting": "[2]; 0.1 mg/kg s.c., 15 min", "result": 9.9, "unit": "%"}, {"measurement": "% Inhibition", "setting": "[2]; 0.1 mg/kg s.c., 60 min", "result": "−6.7", "unit": "%"}, {"measurement": "% Inhibition", "setting": "[2]; 0.1 mg/kg s.c., 105 min", "result": "−4.9", "unit": "%"}, {"measurement": "% Inhibition", "setting": "[2]; 0.3 mg/kg s.c., 15 min", "result": 28.8, "unit": "%"}, {"measurement": "% Inhibition", "setting": "[2]; 0.3 mg/kg s.c., 60 min", "result": "27.6* %"}, {"measurement": "% Inhibition", "setting": "[2]; 0.3 mg/kg s.c., 105 min", "result": "41.2* %"}, {"measurement": "% Inhibition", "setting": "[2]; 3 mg/kg s.c., 15 min", "result": 26.5, "unit": "%"}, {"measurement": "% Inhibition", "setting": "[2]; 3 mg/kg s.c., 60 min", "result": "36.7* %"}, {"measurement": "% Inhibition", "setting": "[2]; 3 mg/kg s.c., 105 min", "result": "39.0* %"}, {"measurement": "% Inhibition", "setting": "[2]; 7 mg/kg s.c., 15 min", "result": 25.1, "unit": "%"}, {"measurement": "% Inhibition", "setting": "[2]; 7 mg/kg s.c., 60 min", "result": "53.9* %"}, {"measurement": "% Inhibition", "setting": "[2]; 7 mg/kg s.c., 105 min", "result": "70.0* %"}]}
